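Tested at 5 concentrations; 48 h exposure; 96-well plates; endpoints linearly interpolated, else capped at highest concentration. Here, GI50 denotes the concentration required for 50% inhibition of growth.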 The source made the active and inactive calls. Cut-off read from the data, not from the text of the source: active = GI50 up to about 1.1 µM and inactive = higher.
Legend:
Assay in all cases: NCI tumour cell line growth inhibition, 48 h
T47D = tested on: T47D
DU-145 = tested on: DU-145
MDA-MB-231 = tested on: MDA-MB-231
SK-MEL-28 = tested on: SK-MEL-28
HCT-15 = tested on: HCT-15
HT-29 = tested on: HT-29
Hs-578T = tested on: Hs-578T
UO-31 = tested on: UO-31
Malme-3M = tested on: Malme-3M
SK-MEL-2 = tested on: SK-MEL-2
SK-MEL-5 = tested on: SK-MEL-5
UACC-257 = tested on: UACC-257
HCC 2998 = tested on: HCC 2998
COLO 205 = tested on: COLO 205
HL-60 = tested on: HL-60
SF-539 = tested on: SF-539
MCF7 = tested on: MCF7
A549 = tested on: A549
SW-620 = tested on: SW-620
OVCAR-4 = tested on: OVCAR-4
HOP-92 = tested on: HOP-92
OVCAR-8 = tested on: OVCAR-8
HCT-116 = tested on: HCT-116
RPMI-8226 = tested on: RPMI-8226
IGROV-1 = tested on: IGROV-1
HOP-62 = tested on: HOP-62
SN12C = tested on: SN12C
K562 = tested on: K562
EKVX = tested on: EKVX
MDA-MB-435 = tested on: MDA-MB-435
786-0 = tested on: 786-0
UACC-62 = tested on: UACC-62
KM12 = tested on: KM12
MDA-N = tested on: MDA-N
NCI/ADR-RES = tested on: NCI/ADR-RES
CCRF-CEM = tested on: CCRF-CEM
SF-295 = tested on: SF-295
LOX IMVI = tested on: LOX IMVI
MOLT-4 = tested on: MOLT-4
OVCAR-5 = tested on: OVCAR-5
TK-10 = tested on: TK-10
OVCAR-3 = tested on: OVCAR-3
SNB-75 = tested on: SNB-75
ACHN = tested on: ACHN
SR = tested on: SR
NCI-H23 = tested on: NCI-H23
PC-3 = tested on: PC-3
SF-268 = tested on: SF-268
SK-OV-3 = tested on: SK-OV-3
M14 = tested on: M14
NCI-H226 = tested on: NCI-H226
U-251 = tested on: U-251
NCI-H460 = tested on: NCI-H460
NCI-H522 = tested on: NCI-H522
RXF 393 = tested on: RXF 393
A498 = tested on: A498
CAKI-1 = tested on: CAKI-1
BT-549 = tested on: BT-549

In the case of `CCN(CC)CCOCCn1c2c(c3ccccc31)CCCC2`, the GI50 (T47D) is reported as 20.6 µM (inactive), the GI50 (DU-145) is reported as 30.9 µM (inactive) and the GI50 (MDA-MB-231) is reported as 18 µM (inactive). The GI50 (SK-MEL-28) was 17 µM (inactive), the GI50 (HCT-15) was 16.3 µM and the GI50 (HT-29) was 23.7 µM (inactive). For the same compound, the GI50 (Hs-578T) was 20 µM (inactive), the GI50 (UO-31) was 14.5 µM (inactive) and the GI50 (Malme-3M) was 15.6 µM (inactive). The GI50 (SK-MEL-2) was 15.7 µM (inactive), the GI50 (SK-MEL-5) was 13.5 µM (inactive) and the GI50 (UACC-257) was 21.9 µM (inactive). For the same compound, the GI50 (HCC 2998) was 16.8 µM (inactive), the GI50 (COLO 205) was 17.7 µM (inactive) and the GI50 (HL-60) was 9.73 µM (inactive). The GI50 (SF-539) was 16.6 µM (inactive), the GI50 (MCF7) was 18.2 µM (inactive) and the GI50 (A549) was 23.9 µM (inactive). For the same compound, the GI50 (SW-620) was 17.1 µM (inactive), the GI50 (OVCAR-4) was 26 µM (inactive) and the GI50 (HOP-92) was 20.9 µM (inactive). For the same compound, the GI50 (OVCAR-8) was 33.7 µM (inactive), the GI50 (HCT-116) was 15.8 µM (inactive) and the GI50 (RPMI-8226) was 20.4 µM (inactive). For the same compound, the GI50 (IGROV-1) was 18.9 µM (inactive), the GI50 (HOP-62) was 17.2 µM (inactive) and the GI50 (SN12C) was 18.3 µM (inactive). For the same compound, the GI50 (K562) was 13.6 µM (inactive), the GI50 (EKVX) was 40.2 µM (inactive) and the GI50 (MDA-MB-435) was 17.8 µM (inactive). For the same compound, the GI50 (786-0) was 16.2 µM (inactive), the GI50 (UACC-62) was 17 µM (inactive) and the GI50 (KM12) was 34.5 µM (inactive). For the same compound, the GI50 (MDA-N) was 17.2 µM (inactive), the GI50 (NCI/ADR-RES) was 12.7 µM (inactive) and the GI50 (CCRF-CEM) was 18.8 µM (inactive). For the same compound, the GI50 (SF-295) was 38.5 µM (inactive), the GI50 (LOX IMVI) was 19.5 µM (inactive) and the GI50 (MOLT-4) was 15.8 µM (inactive). For the same compound, the GI50 (OVCAR-5) was 23.3 µM (inactive), the GI50 (TK-10) was 19.1 µM (inactive) and the GI50 (OVCAR-3) was 35.5 µM (inactive). The GI50 (SNB-75) was 34.8 µM (inactive), the GI50 (ACHN) was 19.1 µM (inactive) and the GI50 (SR) was 16.3 µM (inactive). The GI50 (NCI-H23) was 35.8 µM (inactive), the GI50 (PC-3) was 17.8 µM (inactive) and the GI50 (SF-268) was 36.1 µM (inactive). For the same compound, the GI50 (SK-OV-3) was 27.4 µM (inactive), the GI50 (M14) was 16.9 µM (inactive) and the GI50 (NCI-H226) was 26.4 µM (inactive). The GI50 (U-251) was 17.2 µM (inactive) and the GI50 (NCI-H460) was 22.8 µM (inactive).

With `O=C(C[n+]1ccccc1)N/N=C(\C(=O)NC1=C(Cl)C(=O)c2ccccc2C1=O)c1c(O)c2ccc(O)cc2oc1=O` the GI50 (T47D) was 5.56 µM (inactive), the GI50 (DU-145) was 3.59 µM (inactive) and the GI50 (MDA-MB-231) was 7.73 µM (inactive). For the same compound, the GI50 (SK-MEL-28) was 2.94 µM (inactive), the GI50 (HCT-15) was 2.42 µM and the GI50 (HT-29) was 3.08 µM (inactive). For the same compound, the GI50 (NCI-H522) was 2.07 µM (inactive), the GI50 (UO-31) was 12.2 µM (inactive) and the GI50 (SK-MEL-2) was 2.31 µM (inactive). The GI50 (SK-MEL-5) was 1.06 µM (active), the GI50 (UACC-257) was 3.03 µM (inactive) and the GI50 (HCC 2998) was 3.4 µM (inactive). For the same compound, the GI50 (COLO 205) was 3.05 µM (inactive), the GI50 (HL-60) was 3.43 µM (inactive) and the GI50 (SF-539) was 4.28 µM (inactive). The GI50 (MCF7) was 3.48 µM (inactive), the GI50 (A549) was 3.03 µM (inactive) and the GI50 (SW-620) was 3.89 µM (inactive). The GI50 (OVCAR-4) was 3.08 µM (inactive), the GI50 (HOP-92) was 14.8 µM (inactive) and the GI50 (OVCAR-8) was 3.66 µM (inactive). For the same compound, the GI50 (HCT-116) was 2.99 µM (inactive), the GI50 (RPMI-8226) was 5.96 µM (inactive) and the GI50 (IGROV-1) was 2.41 µM (inactive). For the same compound, the GI50 (HOP-62) was 10.4 µM (inactive), the GI50 (SN12C) was 4.44 µM (inactive) and the GI50 (K562) was 1.91 µM (inactive). For the same compound, the GI50 (EKVX) was 12.9 µM (inactive), the GI50 (MDA-MB-435) was 2.01 µM (inactive) and the GI50 (786-0) was 4.93 µM (inactive). For the same compound, the GI50 (UACC-62) was 1.84 µM (inactive), the GI50 (KM12) was 4.85 µM (inactive) and the GI50 (NCI/ADR-RES) was 4.08 µM (inactive). The GI50 (CCRF-CEM) was 4.94 µM (inactive), the GI50 (RXF 393) was 9.35 µM (inactive) and the GI50 (SF-295) was 3.05 µM (inactive). For the same compound, the GI50 (LOX IMVI) was 2.63 µM (inactive), the GI50 (MOLT-4) was 11 µM (inactive) and the GI50 (OVCAR-5) was 12.3 µM (inactive). The GI50 (TK-10) was 23.7 µM (inactive), the GI50 (OVCAR-3) was 3.37 µM (inactive) and the GI50 (SNB-75) was 6.5 µM (inactive). For the same compound, the GI50 (ACHN) was 5.11 µM (inactive), the GI50 (SR) was 4.19 µM (inactive) and the GI50 (NCI-H23) was 2.52 µM (inactive). The GI50 (PC-3) was 2.77 µM (inactive), the GI50 (SF-268) was 9.77 µM (inactive) and the GI50 (A498) was 19.9 µM (inactive). The GI50 (SK-OV-3) was 14.1 µM (inactive), the GI50 (CAKI-1) was 6.64 µM (inactive) and the GI50 (M14) was 3.5 µM (inactive). For the same compound, the GI50 (BT-549) was 5.14 µM (inactive), the GI50 (NCI-H226) was 5.56 µM (inactive) and the GI50 (U-251) was 5.07 µM (inactive). The GI50 (NCI-H460) was 2.52 µM (inactive).

From ChEMBL document CHEMBL1201862, “PubChem BioAssay data set” (2004)
